This is an account of results in patent US20110006261A1, “USE OF AN OZONE/OXYGEN MIXTURE AS PRIMARY ANTICANCER THERAPY THROUGH INTRAPERITONEAL INSUFFLATION” (priority 2007, published 2011).

One series has as its system auricular VX2 carcinoma. Put plainly: Therapy of auricular VX2 carcinoma in rabbits by intraperitoneal gas insufflation (survival, tumor clearance). It is filed as in vivo, New Zealand White (NZW) rabbit.
The nature of series [1]: Adverse effects: intraabdominal pressure, body weight, clinical signs.
The conditions of series [2]: inhaled, mice; cited from earlier work.

Where “and” joins values, the source holds several entries; their conditions need not be identical. Equal entries are not always repeated.

As to `O=O` [O2, pure medical oxygen], the “day of tumor clearance” value in the series with auricular VX2 carcinoma (day after tumor cell inoculation) was 68 days and 85 days. In the series with auricular VX2 carcinoma (observation period 90 days after tumor cell inoculation), this molecule registered a mean survival time of 51 days. For the same molecule, the “number of rabbits with tumor remission” value with auricular VX2 carcinoma (until day 90) is on record as “two”. In series [1] (compared to mean body weight on day 14), the “maximal drop of mean body weight” value was 5.0%.
Regarding `O=[O+][O-]` [ozone], in series [2], the “adverse effect grade (weight loss)” value is recorded as “grade II” and the weight loss entry is “up to 14%”.
Turning to “medical ozone/oxygen (O3/O2) gas mixture”, the “severe side effects (sustained body weight reduction, gas embolism, fever, diarrhea, peritonitis)” value in series [1] (rabbit, in vivo) was “no severe side effects”.
